This assay concerns CD2F1 mice, L1210 leukemia ip, survival T/C. Nature of the assay: NCI In Vivo Anticancer Drug Screen. Data for tumor model L1210 Leukemia (intraperitoneal) in CD2F1 (CDF1) mice. The following applies: higher = longer survival. The method in brief: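 Each value reflects a quotient of treated over vehicle control outcomes in mice with a transplanted tumor.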
The mark [1] stands for this setting: endpoint: mean survival time, dose: 50.0 mg/kg/injection, schedule: Q04DX003 (ip), vehicle: saline with Tween-80.
Where [2] appears, read: endpoint: mean survival time, dose: 100.0 mg/kg/injection, schedule: Q04DX003 (ip), vehicle: acetone.
Where [3] appears, read: endpoint: mean survival time, dose: 100.0 mg/kg/injection, schedule: Q04DX003 (ip), vehicle: saline with Tween-80.
The mark [4] stands for this setting: endpoint: mean survival time, dose: 200.0 mg/kg/injection, schedule: Q01DX001 (ip), vehicle: saline with Tween-80.
Setting [5] is: endpoint: mean survival time, dose: 100.0 mg/kg/injection, schedule: Q01DX009 (ip), vehicle: saline with Tween-80.
[6] abbreviates: endpoint: mean survival time, dose: 200.0 mg/kg/injection, schedule: Q01DX009 (ip), vehicle: saline with Tween-80.
The mark [7] stands for this setting: endpoint: mean survival time, dose: 200.0 mg/kg/injection, schedule: Q04DX003 (ip), vehicle: saline with Tween-80.
Setting [8] is: endpoint: mean survival time, dose: 400.0 mg/kg/injection, schedule: Q01DX009 (ip), vehicle: saline with Tween-80.
[9] abbreviates: endpoint: mean survival time, dose: 400.0 mg/kg/injection, schedule: Q04DX003 (ip), vehicle: saline with Tween-80.
[10] abbreviates: endpoint: mean survival time, dose: 100.0 mg/kg/injection, schedule: Q04DX002 (ip), vehicle: saline with Tween-80.
Where [11] appears, read: endpoint: mean survival time, dose: 200.0 mg/kg/injection, schedule: Q04DX002 (ip), vehicle: saline with Tween-80.
Setting [12] is: endpoint: mean survival time, dose: 400.0 mg/kg/injection, schedule: Q04DX002 (ip), vehicle: saline with Tween-80.
The mark [13] stands for this setting: endpoint: mean survival time, dose: 100.0 mg/kg/injection, schedule: Q04DX003 (ip), vehicle: Klucel (hydroxypropylcellulose) (HPC).
The mark [14] stands for this setting: endpoint: mean survival time, dose: 200.0 mg/kg/injection, schedule: Q04DX003 (ip), vehicle: Klucel (hydroxypropylcellulose) (HPC).
[15] abbreviates: endpoint: mean survival time, dose: 400.0 mg/kg/injection, schedule: Q04DX003 (ip), vehicle: Klucel (hydroxypropylcellulose) (HPC).
The mark [16] stands for this setting: endpoint: mean survival time, dose: 25.0 mg/kg/injection, schedule: Q04DX002 (ip), vehicle: saline with Tween-80.
Setting [17] is: endpoint: mean survival time, dose: 50.0 mg/kg/injection, schedule: Q04DX002 (ip), vehicle: saline with Tween-80.

“And” between values parts separate entries of the source, which are not always exact repeats. Equal values may be shown once. Toxic doses and inconclusive results are not listed.

On to `CCOC(=O)C12CCCCC1C/C(=N/NC(N)=O)CC2` (centres undefined), for which the T/C runs as follows: under setting [1], 96 % of control; (endpoint: mean survival time, dose: 100.0 mg/kg/injection, schedule: Q01DX001 (ip), vehicle: acetone) 92 % of control; under setting [2], 96 % of control; under setting [3], 96 % of control; (endpoint: mean survival time, dose: 200.0 mg/kg/injection, schedule: Q01DX001 (ip), vehicle: acetone) 94 % of control; under setting [4], 88 % of control. Moreover, the T/C by setting is: (endpoint: mean survival time, dose: 200.0 mg/kg/injection, schedule: Q04DX003 (ip), vehicle: acetone) 90 % of control; (endpoint: mean survival time, dose: 400.0 mg/kg/injection, schedule: Q01DX001 (ip), vehicle: acetone) 97 % of control; (endpoint: mean survival time, dose: 400.0 mg/kg/injection, schedule: Q04DX003 (ip), vehicle: acetone) 90 % of control.
With `COC(=O)/C=C/C=C/C(=O)OC`, the T/C was 96 % of control under setting [5]; 103 % of control under setting [3]; 96 % of control under setting [6]; 112 % of control under setting [7]; 104 % of control under setting [8]; 103 % of control under setting [9].
Turning to `CC(=O)C1CCC2(C)C(CCC3C4CCC(C(C)=O)C4(C)CC(=O)C32)C1` (centres undefined), the T/C (endpoint: mean survival time, dose: 50.0 mg/kg/injection, schedule: Q01DX009 (ip), vehicle: Klucel (hydroxypropylcellulose) (HPC)) is 96 % of control; the T/C (endpoint: mean survival time, dose: 100.0 mg/kg/injection, schedule: Q01DX009 (ip), vehicle: Klucel (hydroxypropylcellulose) (HPC)) is 100 % of control; the T/C (endpoint: mean survival time, dose: 200.0 mg/kg/injection, schedule: Q01DX009 (ip), vehicle: Klucel (hydroxypropylcellulose) (HPC)) is 93 % of control.
Consider `CC1(C)CCC(C#N)=C1N`, for which the T/C was 97 % of control (endpoint: mean survival time, dose: 12.5 mg/kg/injection, schedule: Q04DX003 (ip), vehicle: saline with Tween-80); 97 % of control (endpoint: mean survival time, dose: 25.0 mg/kg/injection, schedule: Q04DX003 (ip), vehicle: saline with Tween-80); 91 % of control under setting [1].
Turning to `COc1cc([N+](=O)[O-])ccc1NC(=O)NCCc1ccccc1`, the T/C (endpoint: mean survival time, dose: 100.0 mg/kg/injection, schedule: Q01DX001 (ip), vehicle: saline with Tween-80) is 86 % of control and 97 % of control; the T/C under setting [5] was 90 % of control and 91 % of control; the T/C under setting [10] is 95 % of control; the T/C under setting [3] was 89 % of control; the T/C under setting [4] was 86 % of control and 91 % of control; the T/C under setting [6] was 91 % of control and 103 % of control. The T/C is, setting by setting: under setting [11], 95 % of control; under setting [7], 91 % of control; (endpoint: mean survival time, dose: 400.0 mg/kg/injection, schedule: Q01DX001 (ip), vehicle: saline with Tween-80) 91 % of control; under setting [8], 90 % of control and 91 % of control; under setting [12], 90 % of control; under setting [9], 89 % of control.
For `CN1CCc2c3n(c4ccccc24)C(=O)CCC31` (centres undefined), the T/C runs as follows: (endpoint: mean survival time, dose: 6.25 mg/kg/injection, schedule: Q04DX003 (ip), vehicle: saline sonified) 101 % of control; (endpoint: mean survival time, dose: 12.5 mg/kg/injection, schedule: Q04DX003 (ip), vehicle: saline sonified) 90 % of control; (endpoint: mean survival time, dose: 25.0 mg/kg/injection, schedule: Q04DX003 (ip), vehicle: saline sonified) 97 % of control.
On to `CC(=O)OCC1OC(OC(C)=O)C(NC(=O)N(CCSCCCl)N=O)C(OC(C)=O)C1OC(C)=O` (centres undefined), for which the T/C is 96 % of control (endpoint: mean survival time, dose: 0.78 mg/kg/injection, schedule: Q01DX001 (ip), vehicle: water); 102 % of control (endpoint: mean survival time, dose: 1.56 mg/kg/injection, schedule: Q01DX001 (ip), vehicle: water); 106 % of control (endpoint: mean survival time, dose: 3.12 mg/kg/injection, schedule: Q01DX001 (ip), vehicle: water); 106 % of control (endpoint: mean survival time, dose: 6.25 mg/kg/injection, schedule: Q01DX001 (ip), vehicle: distilled water + Tween-80); 106 % of control (endpoint: mean survival time, dose: 6.25 mg/kg/injection, schedule: Q01DX001 (ip), vehicle: water).
`Cc1ncc2c(=O)[nH]cnc2n1`: the T/C under setting [3] is 93 % of control, the T/C under setting [7] was 91 % of control and the T/C under setting [9] was 90 % of control.
As for `NC(=O)c1ncn(C2OC3COP(=O)(O)OC3C2O)c1N` (centres undefined), the T/C (endpoint: median survival time, dose: 44.6 mg/kg/injection, schedule: Q01DX005 (ip), vehicle: saline) was 98 % of control; the T/C (endpoint: median survival time, dose: 89.2 mg/kg/injection, schedule: Q01DX005 (ip), vehicle: saline) was 101 % of control; the T/C (endpoint: median survival time, dose: 178.5 mg/kg/injection, schedule: Q01DX005 (ip), vehicle: saline) was 93 % of control.
Take `C[Si](C)(C)NP(=O)(Oc1ccc([N+](=O)[O-])cc1)Oc1ccc([N+](=O)[O-])cc1`: the T/C (endpoint: mean survival time, dose: 15.6 mg/kg/injection, schedule: Q01DX001 (ip), vehicle: other) was 110 % of control; the T/C (endpoint: mean survival time, dose: 31.3 mg/kg/injection, schedule: Q01DX001 (ip), vehicle: other) was 97 % of control; the T/C (endpoint: mean survival time, dose: 62.5 mg/kg/injection, schedule: Q01DX001 (ip), vehicle: other) was 102 % of control and 108 % of control; the T/C (endpoint: mean survival time, dose: 125.0 mg/kg/injection, schedule: Q01DX001 (ip), vehicle: other) was 87 % of control and 94 % of control.
In the case of `CC(C)c1ccc2c(c1)CC[C@H]1[C@](C)(C#N)CCC[C@]21C`, the T/C was 95 % of control under setting [5] and 94 % of control under setting [6].
As for `COc1cc(Cc2cnc(NC(C)=O)nc2NC(C)=O)cc(OC)c1OC`, the T/C under setting [9] is 93 % of control.
Regarding `CC1Oc2ccccc2OC1C(=O)NN` (centres undefined), the T/C is 92 % of control under setting [5], 94 % of control under setting [6] and 94 % of control under setting [8].
Turning to `CCOC(=O)c1cc(=O)c2cc(S(=O)(=O)F)ccc2[nH]1`, the T/C reads like this: under setting [13], 103 % of control; under setting [14], 103 % of control; under setting [15], 100 % of control.
With `C[Si](C)(CCl)N[Si](C)(C)CCl`, the T/C is 100 % of control under setting [5]; 98 % of control under setting [3]; 97 % of control under setting [6]; 96 % of control under setting [7]; 100 % of control under setting [8]; 102 % of control under setting [9].
Take `CCc1ccc(C(=O)CCCCl)cc1`: the T/C was 104 % of control under setting [5], 100 % of control under setting [6] and 100 % of control under setting [8].
Turning to `CCCN(CCC)CN(CCC)CCC`, the T/C (endpoint: mean survival time, dose: 50.0 mg/kg/injection, schedule: Q01DX009 (ip), vehicle: saline) was 98 % of control and the T/C (endpoint: mean survival time, dose: 100.0 mg/kg/injection, schedule: Q01DX009 (ip), vehicle: saline) was 105 % of control.
Turning to `O=C(O)CC(=O)CC(=O)O.[NH-]C1CCCCC1[NH-].[Pt+2]`, the T/C by setting is: (endpoint: median survival time, dose: 3.12 mg/kg/injection, schedule: Q04DX003 (ip), vehicle: saline) 101 % of control and 108 % of control; (endpoint: median survival time, dose: 6.25 mg/kg/injection, schedule: Q04DX003 (ip), vehicle: saline) 114 % of control and 108 % of control; (endpoint: median survival time, dose: 12.5 mg/kg/injection, schedule: Q04DX003 (ip), vehicle: saline) 118 % of control and 112 % of control; (endpoint: median survival time, dose: 25.0 mg/kg/injection, schedule: Q04DX003 (ip), vehicle: saline) 122 % of control; (endpoint: median survival time, dose: 100.0 mg/kg/injection, schedule: Q04DX003 (ip), vehicle: saline) 162 % of control and 294 % of control; (endpoint: median survival time, dose: 200.0 mg/kg/injection, schedule: Q04DX003 (ip), vehicle: saline) 241 % of control.
As for `ClC1=CCCCC1`, the T/C under setting [2] is 102 % of control.
Turning to `CCN(CC)CCNC(=O)C(O)C1CCCCC1` (centres undefined), under “endpoint: mean survival time, dose: 75.0 mg/kg/injection, schedule: Q01DX001 (ip), vehicle: other”, the T/C is 90 % of control.
For the molecule `CC1(O)CCC(C)(O)CC1` (centres undefined), the T/C under setting [16] is 107 % of control and 103 % of control; the T/C under setting [17] was 95 % of control and 98 % of control; the T/C under setting [10] was 107 % of control and 98 % of control; the T/C under setting [11] is 103 % of control.
As to `Cc1cc2ccc(OC(=O)c3ccc(N=C(N)N)cc3)cc2oc1=O`, the T/C under setting [5] was 91 % of control, the T/C under setting [6] was 91 % of control and the T/C under setting [8] is 86 % of control.
Regarding `COC(=O)c1ccc(OCCOc2ccc(C(C)(C)CC(C)(C)C)cc2)c(N)c1`, the T/C under setting [13] was 94 % of control, the T/C under setting [14] was 100 % of control and the T/C under setting [15] is 101 % of control.
Take `COc1cc(Cl)ccc1NC(=O)Nc1ccccc1C`: the T/C reads like this: under setting [16], 90 % of control; under setting [17], 94 % of control; under setting [10], 94 % of control; under setting [11], 90 % of control; under setting [12], 90 % of control.

The record behind these values is PubChem BioAssay AID256 (DTP/NCI, 2004).
